This is an account of results in PubChem BioAssay AID1996.

Values after ≈ are worked out from the molar mass of the structure shown. Bounds are passed on as bounds.

For the series the following is noted: buffer; pH 7.4; 200.0 µM.
Compound `Cc1cc(C(=O)N2CCCC(Nc3ccc(F)cc3)C2)n(C)n1` (configuration not stated) returned a solubility (kinetic) greater than 47.5 µg/mL.

On to `CN1CCN(NC(=O)NC2CCCCC2)CC1`, for which the kinetic solubility is greater than 36.1 µg/mL.

Compound `COc1ccc(NS(=O)(=O)c2ccc(O)c([N+](=O)[O-])c2)cc1S(=O)(=O)N1CCCCC1` returned a kinetic solubility greater than 70.7 µg/mL.

On to `COc1ccc(C(=O)CCN2CCC(C)CC2)cc1.Cl`, for which the solubility (kinetic) was greater than 44.7 µg/mL.

`O=C(OCc1cc2ccccc2[nH]c1=O)c1cccc([N+](=O)[O-])c1`: the kinetic solubility was determined as 0.8 µg/mL (≈ 2.47 µM).

`O=C(COc1ccc2ccc(=O)oc2c1)Nc1nccs1` showed a kinetic solubility of 11.3 µg/mL (≈ 37.4 µM). This solubility kinetic lies about 14-fold higher than the previous one.

`O=C1CN(S(=O)(=O)c2cc(Br)ccc2Br)CCN1` gave a solubility (kinetic) greater than 59.7 µg/mL.

For the compound `COc1cc(C(=O)N2c3ccccc3CCC2C)cc(OC)c1OC` (configuration not stated), the solubility (kinetic) amounted to 32.8 µg/mL (≈ 96.1 µM).

The compound `Cc1cccc(N=C2C(=O)Nc3c(Cl)cccc32)c1` showed a kinetic solubility of 32.4 µg/mL (≈ 120 µM). The solubility kinetic values of the last two compounds are within 1.5-fold of each other.

The compound `CCc1ccc(OCC(=O)N2CC(C(N)=O)Oc3ccccc32)cc1` (configuration not stated) showed a solubility (kinetic) of 45.1 µg/mL (≈ 132 µM). The solubility kinetic values of the last two compounds are within 1.5-fold of each other.

Compound `Cl.c1ccc(SCCOCCN2CCOCC2)cc1` showed a solubility (kinetic) of 43.4 µg/mL.

`Cc1cccc(N2C(S)=C(C#N)C(=O)NC2c2ccco2)c1` (configuration not stated) had a kinetic solubility greater than 46.7 µg/mL.

In turn, `CCc1ccccc1NC(=O)CC(=O)Nc1ccccc1CC` displayed a solubility (kinetic) greater than 46.6 µg/mL.

As for `C=CCNC(=S)N(C1CCCCC1)C1CCCCC1`, the solubility (kinetic) is 21 µg/mL (≈ 74.9 µM).

The compound `COc1ccc(N2CC(C(=O)N3CCCC(C)C3)CC2=O)cc1` (configuration not stated) yielded a kinetic solubility greater than 47.5 µg/mL.

`COc1cccc(OC)c1/C=C/C(=O)NC1CCCCC1` registered a kinetic solubility of 5.8 µg/mL (≈ 20 µM).

For `CCOC(=O)C1CCN(C(=S)NC2CC3C=CC2C3)CC1` (configuration not stated), the kinetic solubility is greater than 46.3 µg/mL.

The compound `Cc1cc(C)c(NC(=O)COC(=O)C2CCCO2)c(C)c1` (configuration not stated) had a kinetic solubility greater than 43.7 µg/mL.

For the compound `COc1cccc(C(=O)NNC(=O)CCC(=O)O)c1`, the solubility (kinetic) is greater than 39.9 µg/mL.

On to `C=CCn1c(O)c(/C(C)=N/N2CCCCCC2)c(=O)[nH]c1=O`, for which the solubility (kinetic) is greater than 46 µg/mL.

`Cc1ccc(SCc2noc(-c3c(C)noc3C)n2)cc1` returned a solubility (kinetic) of 2.1 µg/mL (≈ 6.97 µM).

The compound `CC(C)(C)Cc1nnc(NC(=O)c2ccco2)s1` returned a solubility (kinetic) greater than 39.8 µg/mL.

For the compound `CCOc1ccc(Nc2ccc([N+](=O)[O-])c3nonc23)cc1`, the kinetic solubility was determined as 15.2 µg/mL (≈ 50.6 µM).

In turn, `O=C(COC(=O)/C=C/c1ccccc1[N+](=O)[O-])NC(=O)NC1CCCC1` yielded a kinetic solubility of 7.7 µg/mL (≈ 21.3 µM).

With `CN=CC1=C(O)C(C(=O)OC)C(C)(C)CC1=O` (configuration not stated), the solubility (kinetic) is greater than 35.9 µg/mL.

For `COc1ccccc1-n1c(-c2ccccc2Cl)nc2ccccc2c1=O`, the kinetic solubility was found to be 36.2 µg/mL (≈ 99.8 µM).

The compound `O=S(=O)(c1ccc(Cl)cc1)N1CCN2CCCC2C1` (configuration not stated) yielded a solubility (kinetic) greater than 45.1 µg/mL.

With `Cc1cccc(-c2cnn(-c3ccccc3)c2N)c1`, the solubility (kinetic) is greater than 37.4 µg/mL.

`CCN1CCN(C(=O)C(C)Sc2nc3nc(C)cc(C)n3n2)CC1` (configuration not stated) had a kinetic solubility greater than 52.3 µg/mL.

Turning to `CCN(CC)C(=O)c1cccc(C)c1`, the kinetic solubility is 19.6 µg/mL (≈ 102 µM).

With `CCN(CC)C(=O)c1sc2nc(-c3ccccc3)ccc2c1N`, the kinetic solubility is 19.8 µg/mL (≈ 60.8 µM). The solubility kinetic values of the last two compounds are within 1.5-fold of each other.

In turn, `CCOC(=O)/C(C#N)=C/c1cccn1-c1ccc(Cl)cc1` showed a solubility (kinetic) of less than 0.3 µg/mL.

The compound `O=C(Nc1ccc(O)cc1)N1CCOCC1` showed a solubility (kinetic) greater than 33.3 µg/mL.

Compound `CC(C)CC(=O)N/N=C/c1c(N)n(C)c(=O)n(C)c1=O` registered a solubility (kinetic) greater than 42.2 µg/mL.

`O=C(Nc1ccc(Cl)cc1F)C1CC1c1ccccc1` (configuration not stated) gave a kinetic solubility of 1.4 µg/mL (≈ 4.83 µM).

Consider `Cc1cc(C)cc(NS(=O)(=O)c2c(C)[nH]c(=O)[nH]c2=O)c1`, for which the solubility (kinetic) is greater than 46.4 µg/mL.

Compound `Cc1cc(C)cc(OC(C)C(=O)NCCCn2ccnc2)c1` (configuration not stated) showed a solubility (kinetic) of 33.4 µg/mL (≈ 111 µM).

On to `Cc1ccccc1/C=C\c1nc2ccccc2c(=O)[nH]1`, for which the kinetic solubility was 1.2 µg/mL (≈ 4.57 µM).

Turning to `O=C(c1cccc(Cl)c1)N1CCCc2ccccc21`, the kinetic solubility turned out to be 33.6 µg/mL (≈ 124 µM).

`CC(C)C(=O)Nc1ccc2c(c1)Cc1cc(NC(=O)C(C)C)ccc1-2` came in with a solubility (kinetic) of less than 0.4 µg/mL.

In turn, `Cc1ccc(C(=O)OCC(=O)NCC2CCCO2)c(C)c1` (configuration not stated) came in with a kinetic solubility greater than 43.7 µg/mL.

As for `CN(Cc1ccccc1F)C(=O)c1sccc1-c1ccccc1`, the kinetic solubility was found to be 14 µg/mL (≈ 43 µM).

For the compound `O=c1cc(N2CCCC2)c2ccccc2o1`, the kinetic solubility was greater than 32.3 µg/mL.

As to `Cc1ccc(S(=O)(=O)Nc2ccc3ccccc3n2)cc1`, the kinetic solubility was found to be 33.5 µg/mL (≈ 112 µM).

`CSCC(=O)NC1CCCN(C2Cc3ccccc3C2)C1` (configuration not stated) returned a solubility (kinetic) of 44.1 µg/mL (≈ 145 µM).

For the compound `COc1cccc(NC(=O)N2C3CCCC2CC(NC(C)=O)C3)c1` (configuration not stated), the solubility (kinetic) is greater than 49.7 µg/mL.

Compound `COc1ccc(C(=O)n2c(N)nc3ccccc32)cc1OC.Cl` showed a kinetic solubility of 10.9 µg/mL.

In turn, `CC(C)CNC(=O)C(=O)NCCCN1CCOCC1` returned a kinetic solubility greater than 40.7 µg/mL.

`S=C1N[C@H]2CCCC[C@@H]2N1` had a kinetic solubility of 20.8 µg/mL (≈ 133 µM).

In the case of `COC(=O)c1c(NC(=O)c2ccoc2C)sc(C)c1C`, the kinetic solubility was less than 0.6 µg/mL.

In turn, `O=C(O)c1ccccc1NC(=O)C1C2CCC(O2)C1C(=O)O` (configuration not stated) had a solubility (kinetic) greater than 45.8 µg/mL.

Compound `c1csc(-c2noc(CN3CCOCC3)n2)c1` displayed a kinetic solubility of 36.6 µg/mL (≈ 146 µM).
